Experimental data from patent US20050256179A1, “Selective pharmacologic inhibition of protein trafficking and related methods of treating human diseases” (priority 2003, published 2005).

Experiments:
Format in all cases: cell-based
[1] = test system: calnexin; assay: Calnexin expression by Western blotting (control)
Procedure: The culture medium was removed by vacuuming (for attached cells) or by low speed centrifugation (for suspension cells) for 5-7 minutes at room temperature. The cells were wasedh twith PBS, spun at 1200 rpm and the cell pellets were kept on ice. 300 μl/2.0×10^7 cells of ice cold lysis buffer was added with freshly added protease inhibitors. Cell pellets were gently resuspended and incubated on ice for at least 30 min, vortexed a few times during incubation. Cell lysate was spun at 14,000 rpm for 2-5 min at 4° C. The supernatant was transferred to a new microfuge tube and the pellet was discarded. An aliquot of sample was mixed with an equal volume of 2× sample buffer (InVitrogen), and stored at −80° C. Protein concentration was determined by using “BCA protein assay reagent kit” from Pierce.
Protein samples (in sample buffer) were boiled for 1-3 minutes and put on ice. Same amount of protein were loaded on the NuPage gel (InVitrogen). […]
To further examine the putative protein trafficking effects of AVP 893, other proteins in this pathway were tested in vitro in B16 and other cell lines. […] Other cell lines were tested for their expression of GS28 and nicastrin and found to respond similarly to drug, although quantitative differences were evident. […]

[2] = test system: Rab1a; assay: Rab1a expression by Western blotting; conditions: 3T3 cells
Procedure: Protein samples (in sample buffer) were boiled for 1-3 minutes and put on ice. Same amount of protein were loaded on the NuPage gel (InVitrogen). After the electrophoresis was complete, proteins were transferred from the gel to a PVDF membrane using the electro-blotting apparatus from InVitrogen; the voltage was set to 25 for 2-3 hr. Block non-specific binding by incubating membrane with 5% milk (in PBS, 0.1% tween 20) for at least 30 min at room temperature or overnight at 4° C. The blocked membrane was incubated with primary antibody (See TABLE 2) diluted in 5% milk for 1 hour at room temperature. Optimal antibody dilution depends on the company, the amount of protein. Dilutions of 1:1000 were generally used for the primary antibodies from Santa Cruz. The membrane was washed with PBS, 0.1% tween 3-4 times 5 mins. The membrane was incubated for 30-60 minutes at room temperature with horseradish peroxidase (HRP) conjugated secondary antibody diluted in 5% milk. We usually used 1:4000 dilution for the secondary antibody from Santa Cruz. The membrane was washed 3-4 times with PBS, 0.1% tween, each time 15 minutes. The detection solutions A and B were mixed in a ratio 40:1 and Pipetted onto the membrane, and incubated for 5 min at RT. A sheet of Hyper film ECL was placed on the top of the membrane in the dark and exposed for 1 min, or adjust accordingly. […]

[3] = test system: GM-130; assay: GM-130 expression; conditions: data not shown
Description: Likewise, the non-resident golgi protein Rab6 appeared to be unaffected in some cell types, as illustrated in FIG. 31.

[4] = test system: PC12 pheochromocytoma cells; assay: Norepinephrine release and dopamine re-uptake in PC12 cells; conditions: not shown
Description: The proposed mechanism of the AVP compounds on intracellular protein transit also allows certain predictions as to other effects and non-effects that these compounds might share. For example, inhibition of vesicle fusion or budding between the ER and golgi should not affect exocytosis as would be expected of a post-golgi active compound such as Monensin. AVP 893 has minimal effects on the expression of proteins involved in exocytosis, particularly VAMP, SNAP23 (non-neuronal cells), and SNAP25 (neuronal cells).

[5] = test system: B16F10 cells; assay: Density gradient centrifugation, intracellular protein distribution; conditions: B16 cells, 16 hours drug
Procedure: To test this possibility directly, cells were cultured with and without drug for 16-20 hours, harvested, lysed, and layered on top of a gradient of varying density iodixanol-containing fractions (2.5-30%). The gradients were centrifuged for 2 to 18 hours at 56K x g, collected, and tested for resident proteins via Western blot. Fractions were probed with antibodies specific for calnexin (ER-specific marker), γ-adaptin (golgi), and Rab5a (vesicles). […] FIGS. 34 and 35 also show the unfractionated levels of Rab6 and Rab1B, respectively, that were obtained prior to density gradient centrifugation. No difference in the expression of these 3 marker proteins was observed between the control and drug-treated cells.
B16F10 cells were seeded into 175 cm2 flasks one day prior to drug application. On the subsequent day, fresh media +/−drug was applied to the cultures. 16 hours later, the cells were washed with cold Dulbecco's PBS, then harvested in ice-cold homogenization buffer: 130 mM KCl, 25 mM NaCl, 1 mM EGTA, 25 mM Tris pH7.4, plus 15 ul protease inhibitor per 5 mL buffer. 1 mL of buffer was used per flask, and the cells were scrapped off into 14 mL round-bottom culture tubes and kept on ice. The harvested cells were then homogenized with a tissue homogenizer (Polytron PT10/35), transferred into 2 mL centrifuge tubes, and spun at 1,000 rpm for 8 min at 4° C. […]

O=C(Nc1ccc(-c2nc3cc(NC(=O)C4CCCCC4)ccc3[nH]2)cc1)C1CCCCC1 [AVP 893]
levels of calnexin ([1]; drug-treated cell lines): unchanged
calnexin expression ([1]; stimulated BALB/c spleen cells, 100 ng/ml, 20 hours): minimally affected
Rab1a expression [2]: mild response
GM-130 expression [3]: did not appear to be affected
release of norepinephrine, re-uptake of dopamine [4]: does not affect the release of norepinephrine or the re-uptake of dopamine
distribution of Rab 1b and Rab 6 in gradient fractions [5]: retained in the ER at the expense of the golgi compartment
